Test systems include CAKI-1 renal; LOX IMVI melanoma; 786-0 renal; U251 CNS; NCI/ADR-RES ovarian; HT29 colon; TK-10 renal; SK-OV-3 ovarian; SK-MEL-28 melanoma; HCC-2998 colon.
Common to all, as to test: NCI tumour cell line growth inhibition, 48 h

In PubChem BioAssay (NCI) one finds GI50 and TGI data, which are given here for 6 compounds.

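The compound was tested at five concentrations on cells cultured in 96-well plates, with a 48-hour exposure period. The concentration for 50% growth inhibition is given as GI50. Definition used: TGI = concentration required for complete inhibition of growth.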

As to `CCN1C(=O)N(CC)C2C1NN=c1s/c(=C\c3cccnc3)c(=O)n12` (stereo not given), the GI50 is 0.346 µM in the assay with CAKI-1 renal; 0.543 µM in the assay with LOX IMVI melanoma; 0.695 µM with 786-0 renal; 0.612 µM in the assay on U251 CNS; 0.38 µM with NCI/ADR-RES ovarian; 0.386 µM in the assay on HT29 colon. For the same compound, the GI50 with TK-10 renal is > 100 µM; in the assay on SK-OV-3 ovarian, 2.02 µM; in the assay on SK-MEL-28 melanoma, 0.957 µM; in the assay on HCC-2998 colon, 1.29 µM. In addition, the TGI in the assay on CAKI-1 renal, in the assay with LOX IMVI melanoma, with 786-0 renal, in the assay on U251 CNS, in the assay with NCI/ADR-RES ovarian and with HT29 colon was > 100 µM in each case. Besides, the TGI in the assay on TK-10 renal, in the assay with SK-OV-3 ovarian, in the assay with SK-MEL-28 melanoma and in the assay with HCC-2998 colon was > 100 µM throughout.

For the compound `CN1CCN(CCc2cccc(C(=O)c3cnn(-c4ccc(F)cc4)c3N)c2)CC1`, the GI50 with CAKI-1 renal, with LOX IMVI melanoma, in the assay on 786-0 renal, with U251 CNS, in the assay on NCI/ADR-RES ovarian and with HT29 colon was > 25 µM each time. Also, the GI50 in the assay on TK-10 renal, in the assay on SK-OV-3 ovarian, with SK-MEL-28 melanoma and with HCC-2998 colon was > 25 µM in each case. Also, the TGI with CAKI-1 renal, in the assay on LOX IMVI melanoma, in the assay on 786-0 renal, with U251 CNS, in the assay with NCI/ADR-RES ovarian and in the assay with HT29 colon was > 25 µM each time. Further, the TGI in the assay on TK-10 renal, in the assay on SK-OV-3 ovarian, with SK-MEL-28 melanoma and in the assay on HCC-2998 colon was > 25 µM in each case.

As for `CCCCCn1c(=N)n(CC(O)COc2cccc(C)c2)c2ccccc21` (stereo not given), the GI50 with CAKI-1 renal was 6.95 µM; in the assay with LOX IMVI melanoma, 3.25 µM; in the assay with 786-0 renal, 7.74 µM; in the assay on U251 CNS it was 2.11 µM; with NCI/ADR-RES ovarian it was 10.5 µM; with HT29 colon, 2.73 µM. The GI50 was 10.2 µM with TK-10 renal, 11.8 µM with SK-OV-3 ovarian, 3.95 µM with SK-MEL-28 melanoma and 2.1 µM in the assay on HCC-2998 colon. Further, the TGI in the assay with CAKI-1 renal turned out to be 21.2 µM; with LOX IMVI melanoma, 11.6 µM; with 786-0 renal it was 23.3 µM; in the assay with U251 CNS it was 4.25 µM; with NCI/ADR-RES ovarian it was 27.1 µM; with HT29 colon it was 11.2 µM. Further, the TGI in the assay on TK-10 renal is 22.4 µM; in the assay with SK-OV-3 ovarian, 24.2 µM; in the assay on SK-MEL-28 melanoma it was 14.7 µM; in the assay on HCC-2998 colon, 3.98 µM.

Turning to `COc1cc(Cl)cc(-c2nn(C(=O)NCCN3CCOCC3)cc2-c2ccncc2)c1`, the GI50 in the assay on CAKI-1 renal is 2.49 µM; in the assay on LOX IMVI melanoma, 5.14 µM; in the assay on 786-0 renal it was 6.88 µM; with U251 CNS, 4.7 µM; with NCI/ADR-RES ovarian it was 2.87 µM; in the assay on HT29 colon, 3.98 µM. In addition, the GI50 with TK-10 renal is 8.46 µM; in the assay with SK-OV-3 ovarian, 3.75 µM; in the assay with SK-MEL-28 melanoma it was 4.6 µM; in the assay with HCC-2998 colon, 7.77 µM. In addition, the TGI is 18.7 µM in the assay on CAKI-1 renal; 69.9 µM with LOX IMVI melanoma; 37.9 µM with 786-0 renal; > 100 µM in the assay with U251 CNS; > 100 µM in the assay on NCI/ADR-RES ovarian; > 100 µM in the assay on HT29 colon. The TGI was > 100 µM with TK-10 renal, 19.7 µM in the assay on SK-OV-3 ovarian, 66 µM in the assay on SK-MEL-28 melanoma and 39.7 µM with HCC-2998 colon.

For `COC(=O)[C@H](Cc1cn(C)cn1)NC(=O)[C@H](Cc1c[nH]c2ccccc12)NC(=O)Nc1cc(C(F)(F)F)cc(C(F)(F)F)c1`, the GI50 with CAKI-1 renal, in the assay with LOX IMVI melanoma, with 786-0 renal, in the assay on U251 CNS, with NCI/ADR-RES ovarian and in the assay with HT29 colon was > 10 µM each time. Also, the GI50 in the assay with TK-10 renal, in the assay with SK-OV-3 ovarian, in the assay on SK-MEL-28 melanoma and in the assay on HCC-2998 colon was > 10 µM throughout. The TGI in the assay with CAKI-1 renal, in the assay with LOX IMVI melanoma, in the assay with 786-0 renal, with U251 CNS, with NCI/ADR-RES ovarian and with HT29 colon was > 10 µM in each case. Moreover, the TGI with TK-10 renal, with SK-OV-3 ovarian, in the assay with SK-MEL-28 melanoma and in the assay with HCC-2998 colon was > 10 µM in each case.

As for `N#Cc1cnc2cc(OC[C@H](O)CO)c(NC(=O)CC3CSSC3)cc2c1Nc1ccc(OCc2cccc(F)c2)c(Cl)c1`, the GI50 in the assay on CAKI-1 renal was 10.1 µM; with LOX IMVI melanoma it was 2.26 µM; in the assay on 786-0 renal, 1.76 µM; in the assay on U251 CNS, 0.465 µM; with NCI/ADR-RES ovarian it was 2.72 µM; in the assay on HT29 colon, 0.221 µM. The GI50 in the assay on TK-10 renal was 0.873 µM; in the assay with SK-OV-3 ovarian, 0.748 µM; in the assay with SK-MEL-28 melanoma it was 0.126 µM; with HCC-2998 colon, 0.796 µM. Moreover, the TGI in the assay with CAKI-1 renal worked out at 27.6 µM; in the assay with LOX IMVI melanoma it was 3.41 µM; in the assay on 786-0 renal, 9.6 µM; in the assay with U251 CNS it was 1.33 µM; in the assay on NCI/ADR-RES ovarian it was 5.1 µM; with HT29 colon it was 0.836 µM. For the same compound, the TGI in the assay with TK-10 renal came to 2.13 µM; in the assay with SK-OV-3 ovarian it was 1.48 µM; with SK-MEL-28 melanoma it was 0.319 µM; in the assay on HCC-2998 colon, 1.55 µM.
